According to ChEMBL document CHEMBL1156391, “Screening of triterpenoids isolated from Phyllanthus flexuosus for DNA topoisomerase inhibitory activity” (J Nat Prod, 2001):
Activity calls are given as the source filed them. The calls are words filed in the database; no cut-off is given here.

Assays:
[1] = target: T1, DNA topoisomerase 2-alpha (Homo sapiens, UniProt P11388); assay: Inhibition of 1 unit human topoisomerase 2alpha catalytic activity assessed as relaxation of 198 ng supercoiled pBR322 DNA at 100 uM by agarose gel electrophoresis
[2] = target: T2, DNA topoisomerase 1 (Homo sapiens) (UniProt P11387); assay: Inhibition of human topoisomerase 1 assessed as relaxation of supercoiled pBR322 DNA up to 200 uM by agarose gel electrophoresis
T2 sequence (whole entry): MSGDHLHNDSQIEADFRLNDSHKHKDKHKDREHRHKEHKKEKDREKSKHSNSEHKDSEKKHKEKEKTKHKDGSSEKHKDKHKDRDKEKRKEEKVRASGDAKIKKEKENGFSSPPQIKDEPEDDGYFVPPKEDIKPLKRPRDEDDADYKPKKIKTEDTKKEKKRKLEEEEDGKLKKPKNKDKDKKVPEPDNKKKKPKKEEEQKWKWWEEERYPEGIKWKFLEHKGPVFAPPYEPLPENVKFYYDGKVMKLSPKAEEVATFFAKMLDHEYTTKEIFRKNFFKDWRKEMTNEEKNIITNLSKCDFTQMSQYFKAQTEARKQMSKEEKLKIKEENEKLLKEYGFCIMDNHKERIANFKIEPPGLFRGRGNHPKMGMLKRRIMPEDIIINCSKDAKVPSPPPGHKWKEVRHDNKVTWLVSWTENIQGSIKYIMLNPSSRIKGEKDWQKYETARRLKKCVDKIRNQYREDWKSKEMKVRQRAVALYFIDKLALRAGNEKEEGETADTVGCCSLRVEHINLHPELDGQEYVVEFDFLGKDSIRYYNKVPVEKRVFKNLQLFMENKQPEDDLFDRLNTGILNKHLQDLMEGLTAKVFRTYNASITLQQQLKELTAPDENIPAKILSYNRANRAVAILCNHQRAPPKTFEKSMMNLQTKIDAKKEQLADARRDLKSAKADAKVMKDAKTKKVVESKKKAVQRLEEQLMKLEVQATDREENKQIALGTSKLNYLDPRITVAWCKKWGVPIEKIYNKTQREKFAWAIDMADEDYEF

[3] = target: T1, DNA topoisomerase 2-alpha; assay: Inhibition of human 1 unit topoisomerase 2alpha catalytic activity assessed as relaxation of 198 ng supercoiled pBR322 DNA by agarose gel electrophoresis
[4] = target: T1, DNA topoisomerase 2-alpha; assay: Inhibition of 1 unit human topoisomerase 2alpha catalytic activity assessed as relaxation of 198 ng supercoiled pBR322 DNA at 200 uM by agarose gel electrophoresis

T1 sequence (P11388 whole entry): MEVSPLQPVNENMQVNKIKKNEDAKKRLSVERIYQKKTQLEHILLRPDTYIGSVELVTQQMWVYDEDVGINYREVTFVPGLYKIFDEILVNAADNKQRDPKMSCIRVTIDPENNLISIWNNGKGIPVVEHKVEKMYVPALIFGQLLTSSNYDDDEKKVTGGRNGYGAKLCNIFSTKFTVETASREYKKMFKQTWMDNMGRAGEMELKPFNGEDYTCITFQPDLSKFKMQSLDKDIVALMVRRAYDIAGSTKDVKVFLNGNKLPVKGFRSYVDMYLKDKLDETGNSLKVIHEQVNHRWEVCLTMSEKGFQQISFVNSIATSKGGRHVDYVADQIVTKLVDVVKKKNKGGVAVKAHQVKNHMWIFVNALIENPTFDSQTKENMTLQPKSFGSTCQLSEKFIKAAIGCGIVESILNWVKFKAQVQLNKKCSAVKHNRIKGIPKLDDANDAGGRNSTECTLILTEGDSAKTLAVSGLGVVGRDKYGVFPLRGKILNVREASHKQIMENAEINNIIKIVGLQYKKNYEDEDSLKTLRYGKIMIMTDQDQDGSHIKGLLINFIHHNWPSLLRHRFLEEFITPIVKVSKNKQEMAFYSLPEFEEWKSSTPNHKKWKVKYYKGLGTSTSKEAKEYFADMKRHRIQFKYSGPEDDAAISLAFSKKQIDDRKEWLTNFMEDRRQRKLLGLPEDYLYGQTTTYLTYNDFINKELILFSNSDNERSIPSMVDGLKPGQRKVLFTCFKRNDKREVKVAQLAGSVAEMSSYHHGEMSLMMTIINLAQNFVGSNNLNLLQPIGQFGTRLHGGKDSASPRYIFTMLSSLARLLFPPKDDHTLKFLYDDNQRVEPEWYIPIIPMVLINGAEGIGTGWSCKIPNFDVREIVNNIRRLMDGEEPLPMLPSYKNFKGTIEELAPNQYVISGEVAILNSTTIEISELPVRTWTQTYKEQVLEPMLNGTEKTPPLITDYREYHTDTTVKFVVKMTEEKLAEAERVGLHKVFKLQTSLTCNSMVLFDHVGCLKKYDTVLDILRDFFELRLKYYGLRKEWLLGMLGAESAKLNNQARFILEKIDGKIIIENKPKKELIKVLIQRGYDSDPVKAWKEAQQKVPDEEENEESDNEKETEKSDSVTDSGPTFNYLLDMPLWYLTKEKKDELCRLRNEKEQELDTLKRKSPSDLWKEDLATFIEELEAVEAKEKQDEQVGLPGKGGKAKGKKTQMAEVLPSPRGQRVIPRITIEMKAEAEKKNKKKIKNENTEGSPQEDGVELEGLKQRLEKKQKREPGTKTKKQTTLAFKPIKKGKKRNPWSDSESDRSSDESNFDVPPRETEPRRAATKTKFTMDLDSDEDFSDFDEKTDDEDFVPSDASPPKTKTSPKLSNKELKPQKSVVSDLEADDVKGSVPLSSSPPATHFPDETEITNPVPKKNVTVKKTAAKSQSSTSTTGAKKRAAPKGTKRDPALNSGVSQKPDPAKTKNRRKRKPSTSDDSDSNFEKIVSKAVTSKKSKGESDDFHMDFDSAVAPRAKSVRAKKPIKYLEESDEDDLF

Row | Activity [1] | Activity [2] | Activity [3] | IC50 [3] [µM] | inhibition [4] | SMILES
1 | – | inactive | – | – | inactive | C=C(C)[C@@H]1CC[C@]2(C)CC[C@]3(C)[C@H](CC[C@@H]4[C@@]5(C)CC[C@H](O)[C@](C)(CO)[C@@H]5CC[C@]43C)[C@H]12
2 | Active | inactive | Dose-dependent effect | 10.4 | – | C=C(C)[C@@H]1CC[C@]2(C)CC[C@]3(C)[C@H](CC[C@@H]4[C@@]5(C)CC[C@H](O)C(C)(C)[C@@H]5CC[C@]43C)[C@@H]12 [LUPEOL]

Second part, the molecule before the results:

Row | SMILES | Activity [1] | Activity [2] | Activity [3] | IC50 [3] [µM] | inhibition [4]
3 | CC1(C)CC[C@]2(C)C[C@H](O)[C@]3(C)C(=CC[C@@H]4[C@@]5(C)CC[C@H](O)C(C)(C)[C@@H]5CC[C@]43C)[C@@H]2C1 | Active | inactive | Dose-dependent effect | 17.5 | –
4 | CC1(C)CC[C@]2(C)C[C@H](O)[C@]3(C)C(=CC[C@@H]4[C@@]5(C)CC[C@H](O)[C@](C)(CO)[C@@H]5CC[C@]43C)[C@@H]2C1 | Active | inactive | Dose-dependent effect | 38.7 | –
5 | C=C(C)[C@@H]1CC[C@]2(CO)CC[C@]3(C)[C@H](CC[C@@H]4[C@@]5(C)CC[C@H](O)C(C)(C)[C@@H]5CC[C@]43C)[C@@H]12 [BETULIN] | Active | inactive | Dose-dependent effect | 38.6 | –
6 | CC1(C)CC[C@]2(C)CC[C@]3(C)C(=CC[C@@H]4[C@@]5(C)CC[C@H](O)[C@](C)(CO)[C@@H]5CC[C@]43C)[C@@H]2C1 | – | inactive | – | > 200 | 33%
